Laboratory results as given in patent US6156789A, “Method for treating abnormal cell proliferation in the brain” (Rhone-Poulenc Rorer S.A., priority 1998, dated 2000).
Like-named read-outs stand apart in the source and are kept apart here.

Test: Tissue distribution of Compound A in mice with mammary C/16 adenocarcinomas (first method: liver, heart, kidney, lung, spleen, tumor)
Type: in vivo, C3H/HeN female mice
Conditions: for Kp at 1 h / Kp at 14 h / half-life / Tmax / Kp at 0.033 h / Kp at 0.083 h / Kp at 0.25 h / Kp at 4 h / Kp at 0.5 h / Kp at 24 h / Kp at 0.75 h: mouse, iv; for Kp at 0.5 h: 0.50 h
Experimental: Mammary C/16 adenocarcinomas were implanted in C3H/HeN female mice. At least 7 days later, 4α,10β-diacetoxy-2α-benzoyloxy-5β,20-epoxy-1β-hydroxy-7β,8β-methylene-9-oxo-19-nor-11-taxen-13α-yl (2R,3S)-3-tert-butoxycarbonylamino-2-hydroxy-3-phenylpropionate ("Compound A") was administered to groups of female mice at doses of 9.5, 15.4, 24.8, 40 or 60.5 mg/kg by intravenous injection under 0.4 or 0.5 ml/injection over 15 seconds. The body weight and date of implantation were recorded for each mouse. Blood and tissue samples were taken 2, 5, 15, 30 and 45 minutes and 1, 4, 14, 24 and 48 hours, after administration. The plasma was separated from the blood samples at 4° C. and frozen immediately. The tissue and tumors were weighed and frozen immediately (-20° C.).
The plasma and tissue samples were then analyzed for the concentration of Compound A. The plasma was assayed by high pressure liquid chromatography with spectrophotometric detection. For the tissue, liver, heart, kidney, lung, spleen and tumor tissue, samples were assayed by a first method, while a second method was used for the brain tissue analyzed. In the first method, 0.2 g of tissue was combined with 2 ml of sodium phosphate buffer 0.1 M (pH:7) and homogenized. The homogenate was centrifuged and 0.5 ml of supernatant was injected into the chromatographic column. In the second method, 10 μl of standard solution was combined with 0.2 g of brain tissue. 2 ml of methanol/5% perchloric acid (50/50) were added and the mixture was homogenized. The homogenate was centrifuged and 100 μl of supernatant was injected into the chromatographic column.

[1] = kidney/plasma, 40 mg/kg, 40 μg/kg [sic], mice with tumors, single mice, read-out: Tissue/Plasma Ratio, KIDNEY
[2] = liver/plasma, 40 mg/kg, mice with tumors, single mice, read-out: Tissue/Plasma Ratio, LIVER
[3] = lung/plasma, 40 mg/kg, 40 μg/kg [sic], mice with tumors, single mice, read-out: Tissue/Plasma Ratio, LUNG
[4] = spleen/plasma, 40 mg/kg, mice with tumors, single mice, read-out: Tissue/Plasma Ratio, SPLEEN
[5] = tumor/plasma, 40 mg/kg, mice with tumors, single mice, read-out: Tissue/Plasma Ratio, TUMOR
[6] = tumor/plasma, dose 9.5, single mice, read-out: Tumor/Plasma Ratio
[7] = tumor/plasma, dose 15.4, single mice, MEAN=b373, read-out: Tumor/Plasma Ratio
[8] = tumor/plasma, dose 24.8, single mice, read-out: Tumor/Plasma Ratio
[9] = tumor/plasma, dose 40, single mice, read-out: Tumor/Plasma Ratio
[10] = tumor/plasma, dose 60.5, single mice, read-out: Tumor/Plasma Ratio

CC(=O)O[C@H]1C(=O)[C@]23C[C@H]2C[C@H]2OC[C@@]2(OC(C)=O)[C@H]3[C@H](OC(=O)c2ccccc2)[C@]2(O)C[C@H](OC(=O)[C@H](O)[C@@H](NC(=O)OC(C)(C)C)c3ccccc3)C(C)=C1C2(C)C [Compound A, 4α,10β-diacetoxy-2α-benzoyloxy-5β,20-epoxy-1β-hydroxy-7β,8β-methylene-9-oxo-19-nor-11-taxen-13α-yl (2R,3S)-3-tert-butoxycarbonylamino-2-hydroxy-3-phenylpropionate] gave a Kp at 1 h [1] of 2.17, a Kp at 14 h [1] of 2.56 and a half-life (liver, 40 mg/kg, 40 mg/kg i.v., read-out: half-life of the distribution phase, liver (converted)) of 17.4 min. For the same molecule, the half-life (liver, 40 mg/kg, read-out: t 1/2, Liver (converted)) was 186 min, the Tmax (liver, 40 mg/kg i.v., read-out: time of maximum concentration, liver) was 4.98 min and the Kp at 0.033 h [2] was 1.54. The Kp at 0.083 h [2] was 3.07, the Kp at 0.25 h [2] was 1.79 and the Kp at 1 h [2] was 1.71. For the same molecule, the Kp at 4 h [2] was 0.93, the Kp at 14 h (liver/plasma, 40 mg/kg, mice with tumors, single mouse, read-out: Tissue/Plasma Ratio, LIVER) was 1.62 and the half-life (lung, 40 mg/kg, 40 mg/kg i.v., read-out: half-life of the distribution phase, lung (converted)) was 20.4 min. For the same molecule, the half-life (lung, 40 mg/kg, read-out: t 1/2, Lung (converted)) was 174 min, the Tmax (lung, 40 mg/kg i.v., read-out: time of maximum concentration, lung) was 4.98 min and the Kp at 0.033 h [3] was 0.33. It also gave a Kp at 0.083 h [3] of 0.79, a Kp at 0.25 h [3] of 0.95 and a Kp at 0.5 h [3] of 1.27. For the same molecule, the Kp at 1 h [3] was 1, the Kp at 4 h [3] was 1.43 and the Kp at 14 h [3] was 0.81. The half-life (spleen, 40 mg/kg, 40 mg/kg i.v., read-out: half-life of the distribution phase, spleen (converted)) was 13.8 min, the half-life (spleen, 40 mg/kg, read-out: t 1/2, Spleen (converted)) was 450 min and the Tmax (spleen, 40 mg/kg i.v., read-out: time of maximum concentration, spleen) was 4.98 min. The Kp at 0.033 h [4] was 0.46, the Kp at 0.25 h [4] was 0.85 and the Kp at 0.5 h [4] was 1.24. It also gave a Kp at 1 h [4] of 1.1, a Kp at 4 h [4] of 1.72 and a Kp at 14 h [4] of 2.37. The half-life (tissues, 40 mg/kg, 40 mg/kg i.v., tissues other than brain, read-out: half-life in the other tissues) was 96 to 558 min, the half-life (tissues, 40 mg/kg, 40 mg/kg i.v., tissues tested except tumor and brain, read-out: elimination half-life, slower phase) was 96 to 450 min and the half-life (tumor, 40 mg/kg, read-out: t 1/2, Tumor (converted)) was 558 min. For the same molecule, the Tmax (tumor, 40 mg/kg i.v., read-out: time of maximum concentration, tumor) was 15 min, the Kp at 0.033 h [5] was 0.2 and the Kp at 0.083 h [5] was 0.37. For the same molecule, the Kp at 0.25 h [5] was 0.58, the Kp at 0.5 h [5] was 0.78 and the Kp at 1 h [5] was 0.95. The Kp at 4 h [5] was 1.8, the Kp at 24 h [5] was 2.79 and the Kp at 0.033 h [6] was 0.24. For the same molecule, the Kp at 0.25 h [6] was 0.51, the Kp at 0.75 h [6] was 0.94 and the Kp at 1 h [6] was 2.02. The Kp at 4 h [6] was 3.45, the Kp at 0.033 h [7] was 0.23 and the Kp at 0.083 h [7] was 0.28. It also gave a Kp at 0.25 h [7] of 0.6, a Kp at 0.5 h [7] of 0.97 and a Kp at 0.75 h [7] of 1.75. The Kp at 1 h [7] was 1.83, the Kp at 4 h [7] was 1.9 and the Kp at 0.033 h [8] was 0.13. It also gave a Kp at 0.083 h [8] of 0.28, a Kp at 0.25 h [8] of 0.71 and a Kp at 0.75 h [8] of 1.14. The Kp at 1 h [8] was 1.29, the Kp at 4 h [8] was 1.61 and the Kp at 0.033 h [9] was 0.2. For the same molecule, the Kp at 0.083 h [9] was 0.37, the Kp at 0.25 h [9] was 0.58 and the Kp at 0.5 h [9] was 0.78. It also gave a Kp at 1 h [9] of 0.95, a Kp at 4 h [9] of 1.8 and a Kp at 24 h [9] of 2.79. For the same molecule, the Kp at 0.083 h [10] was 0.19, the Kp at 0.25 h [10] was 0.39 and the Kp at 0.5 h [10] was 0.62. For the same molecule, the Kp at 4 h [10] was 2.48, the Kp at 24 h (tumor/plasma, dose 60.5, single mouse, read-out: Tumor/Plasma Ratio) was 13.3 and the “pharmacokinetics in mice with mammary tumors, linearity” value (range of doses administered) was “similarly linear”.
